Tests used:
Assay type in all cases: in vivo
[1] = test system: Semen Euphorbiae Lathyridis; assay: Post-emergence test experiment, Semen Euphorbiae Lathyridis; details: 200 g a.i./ha, 3 weeks, weed resistant to cyhalofop-butyl
Procedure: (§1) The above described growth inhibition rate is fresh weight inhibition rate.
(§2) Post-emergence test experiment: Monocotyledonous and dicotyledonous weed seeds and main crop seeds (i. e. wheat, corn, rice, soybean, cotton, oilseed, millet and sorghum.) were put into a plastic pot loaded with soil. Then covered with 0.5-2 cm soil, the seeds were allowed to grow in good greenhouse environment. The test plants were treated at 2-3 leaf stage 2 weeks after sowing. The test compounds of the invention were dissolved with acetone respectively, then added with tween-80, and using 1.5 liters per hectare of an emulsible concentrate of methyl oleate as a synergist, and diluted by certain amount of water to certain concentration. The solution was sprayed to the plants with a sprayer. Then the plants were cultured for 3 weeks in the greenhouse, and the experiment result of weed controlling effect was listed in tables 4-5.

Echinochloa crusgalli = assay: Post-emergence test experiment, Echinochloa crusgalli; details: for Echinochloa crusgalli, activity level (growth inhibition rate): 200 g a.i./ha, 3 weeks, weed resistant to ALS inhibitor and ACCe herbicides; for Activity level (growth inhibition rate), Echinochloa crusgalli: 1000 g a.i./ha, 3 weeks in greenhouse, fresh weight inhibition
Summary of the method: (§3)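 Read-out is fresh weight inhibition rate, taken 3 weeks after spraying. Treatment was applied to plants at the 2-3 leaf stage, grown from seed under 0.5-2 cm soil in greenhouse pots. Spray solution contained acetone, tween-80 and methyl oleate emulsible concentrate at 1.5 liters per hectare.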

Digitaria sanguinalis = assay: Post-emergence test experiment, Digitaria sanguinalis; details: for Digitaria sanguinalis, activity level (growth inhibition rate): 200 g a.i./ha, 3 weeks, weed resistant to cyhalofop-butyl; for Activity level (growth inhibition rate), Digitaria sanguinalis: 1000 g a.i./ha, 3 weeks in greenhouse, fresh weight inhibition
Summary of the method: as §3

[2] = test system: Monocotyledonous and dicotyledonous weed seeds and main crop seeds; assay: Post-emergence test experiment, other weeds and crops (Table 4, 1000 g a.i./ha); details: 3 weeks in greenhouse, fresh weight inhibition
Summary of the method: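 Weed and crop seeds (wheat, corn, rice, soybean, cotton, oilseed, millet, sorghum) sown in soil pots in a greenhouse and sprayed at 2-3 leaf stage, 2 weeks after sowing. Compound in acetone/tween-80 with methyl oleate concentrate (1.5 L/ha) as synergist. Effect recorded as fresh-weight growth inhibition rate.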

rice = assay: Post-emergence test experiment, rice (crop selectivity); details: 200 g a.i./ha, 3 weeks
Procedure: as §1, §2

Row | SMILES | Semen Euphorbiae Lathyridis, activity level (growth inhibition rate) [1] | Echinochloa crusgalli, activity level (growth inhibition rate) (Echinochloa crusgalli) | Activity level (growth inhibition rate), Echinochloa crusgalli (Echinochloa crusgalli) | Digitaria sanguinalis, activity level (growth inhibition rate) (Digitaria sanguinalis) | Activity level (growth inhibition rate), Digitaria sanguinalis (Digitaria sanguinalis) | Activity level (growth inhibition rate), Abutilon theophrasti Medic. [2] | Activity level (growth inhibition rate), Galium aparine [2] | Activity level (growth inhibition rate), Monochoria Vaginalis [2] | rice, activity level (growth inhibition rate) (rice)
1 | C[C@@H](Oc1nc(F)c(Cl)c(N)c1Cl)C(=O)OCCCC(F)(F)F [Compound 2-280] | 5 (Level 5: the growth inhibition rate is greater than 85%) | 5 (Level 5: the growth inhibition rate is greater than 85%) | 5 (Level 5: the growth inhibition rate is greater than 85%) | 5 (Level 5: the growth inhibition rate is greater than 85%) | 5 (Level 5: the growth inhibition rate is greater than 85%) | 5 (Level 5: the growth inhibition rate is greater than 85%) | 5 (Level 5: the growth inhibition rate is greater than 85%) | 5 (Level 5: the growth inhibition rate is greater than 85%) | 0 (Level 0: the growth inhibition rate is less than 5%)
2 | CC(Oc1nc(F)c(Cl)c(N)c1Cl)C(=O)OCCN(C)C (stereo not drawn) [Compound 2-283] | 5 (Level 5: the growth inhibition rate is greater than 85%) | 5 (Level 5: the growth inhibition rate is greater than 85%) | 5 (Level 5: the growth inhibition rate is greater than 85%) | 5 (Level 5: the growth inhibition rate is greater than 85%) | 5 (Level 5: the growth inhibition rate is greater than 85%) | 5 (Level 5: the growth inhibition rate is greater than 85%) | 5 (Level 5: the growth inhibition rate is greater than 85%) | 5 (Level 5: the growth inhibition rate is greater than 85%) | 0 (Level 0: the growth inhibition rate is less than 5%)
3 | CCCCCCCCCCCOC(=O)[C@@H](C)Oc1nc(F)c(Cl)c(N)c1Cl [Compound 2-215] | 5 (Level 5: the growth inhibition rate is greater than 85%) | 4 (Level 4: the growth inhibition rate is equal to or greater than 60% and less than 85%) | 5 (Level 5: the growth inhibition rate is greater than 85%) | 5 (Level 5: the growth inhibition rate is greater than 85%) | 5 (Level 5: the growth inhibition rate is greater than 85%) | 5 (Level 5: the growth inhibition rate is greater than 85%) | 5 (Level 5: the growth inhibition rate is greater than 85%) | 5 (Level 5: the growth inhibition rate is greater than 85%) | 0 (Level 0: the growth inhibition rate is less than 5%)
4 | CCCCCCCCCCOC(=O)[C@@H](C)Oc1nc(F)c(Cl)c(N)c1Cl [Compound 2-195] | 5 (Level 5: the growth inhibition rate is greater than 85%) | 4 (Level 4: the growth inhibition rate is equal to or greater than 60% and less than 85%) | 5 (Level 5: the growth inhibition rate is greater than 85%) | 5 (Level 5: the growth inhibition rate is greater than 85%) | 5 (Level 5: the growth inhibition rate is greater than 85%) | 5 (Level 5: the growth inhibition rate is greater than 85%) | 5 (Level 5: the growth inhibition rate is greater than 85%) | 5 (Level 5: the growth inhibition rate is greater than 85%) | 0 (Level 0: the growth inhibition rate is less than 5%)
